# Experimental data from patent US20180353512A1, “COMBINATION THERAPIES FOR TREATING B-CELL MALIGNANCIES” (GILEAD SCIENCES, INC., priority 2015, published 2018).
# System: c-Myc
# Assay: c-Myc RNAseq and western blot in ABC-DLBCL cell lines
# Type: cell-based
# Protocol: Gene expression levels and mutations were determined by […]. The following bioinformatics platforms were used to analyze the sequence reads: DNA sequencing reads were aligned to human reference genome by BWA. Single nucleotide variants were identified using VarScan and were annotated using SnpEff Putative somatic mutations were prioritized by mutant allele frequency, recurrence and predicted functional impact. RNA sequencing reads were aligned to human reference genome using STAR and RNA abundance was quantified using RSEM. The Bioconductor package edgeR was used to normalize sequence count and limma was used to conduct differential gene expression analysis.
# Protein expression was measured using Simple Western, SDS/PAGE and Western Blot or Peggy Sue (ProteinSimple), generally according to the procedures described above in Example 3B. Primary antibodies used to test phosphorylated protein or total protein levels include antibodies against: p-AKT (S473), p-AKT (T308), AKT, p-ERK (T202/Y204), p-S6 (S235/236), S6, p-PDK1 (S241), p-PLCγ2 (Y1217), p-GSK3β (S9), p-STAT3 (Y705), p-IκBα (S32), IκBα, p-SYK (Y525/526), p-BTK (Y223), PI3Kγ, PTEN, and actin.
compound,measurement,setting,value
"CCC(Nc1ncnc2[nH]cnc12)c1nc2cccc(F)c2c(=O)n1-c1ccccc1 (centres unmarked) [Idelalisib, 2-(1-((9H-Purin-6-yl)amino)propyl)-5-fluoro-3-phenylquinazolin-4(3H)-one]",c-Myc mRNA (RNAseq),"500 nM idelalisib, sensitive cell lines (TMD8 and Ri-1)",c-Myc mRNA downregulation
same,c-Myc (western blot),TMD8^S,inhibited
